Experimental data from a melting point compilation (Tetko et al.; mined from patent text by program, amines drawn as free bases though some values may be those of a salt).

Compared with `O=C(c1ccc(CNc2ncnc3ccccc23)cc1)N1CCN(c2ncc(Cc3ccccc3)cn2)CC1`, `Cc1nc2ccc(OCCCN3CCC(OC(c4ccccc4)c4ccccc4)CC3)nn2n1` is higher in melting point: 99 to 101 °C for the first, 134 to 136 °C for the second.

First: CC(NC(=O)Oc1cccc2c1C1(C)CCN(C)C1N2C)c1ccccc1 (stereo not drawn)
Second: COc1cc(CCNC(=O)c2ccccc2)cc2c1OC(C)(C)C2
The melting point of the first is higher: 151 to 155 °C for the first, 137 to 138 °C for the second.

Compared with `CCC(=O)N1CCC(NC(=O)Nc2cccc(F)c2)CC1`, `O=C1Cc2cc(NC(=O)C(=O)N3CCC(Cc4ccc(F)cc4)CC3)ccc2N1` is lower in melting point: 158 to 164 °C for the first, 152 to 154 °C for the second.

First: CC(=O)NCCC1CCNCC1
Second: CCS(=O)(=O)c1cc(C(=O)NCC2CCCN2C)c(OC)cc1N (stereo not drawn)
The melting point of the first is lower: 60 °C for the first, 126 to 127 °C for the second.

First: CC(C)(CCCC(=O)O)c1ccc2c(c1)C(=O)c1cc(C(C)(C)CCCC(=O)O)ccc1C2=O
Second: CCCCCCC(C)Oc1ccc(-c2ccc(C(C)=O)cc2)cc1F (stereo not drawn)
The melting point of the first is higher: 145 to 147 °C for the first, 67.6 to 68.5 °C for the second.

Compared with `CC(C)[C@H]1CC[C@H](O)C=C1S(=O)(=O)c1ccccc1`, `O=C(O)C(=O)N1CCC(Oc2ccccc2)CC1` is higher in melting point: 105 °C for the first, 109 to 112 °C for the second.

First: COC(=O)c1ccc(-c2nc(-c3ccc4c(c3)C(C)(C)CCC4(C)C)no2)cc1
Second: CCOC(=O)Nc1cccc(C(=O)Nc2ccc3ccc(OC)nc3n2)c1
The melting point of the first is higher: 166 to 168 °C for the first, 120 °C for the second.

Compared with `CSc1ncc2cc(CBr)c(=O)n(C3CCCC3)c2n1`, `CCCn1c(=O)c2[nH]c(C3CC4CCC3C4)nc2n(CCC)c1=O` (stereo not drawn) is higher in melting point: 103 to 105 °C for the first, 136 to 138 °C for the second.

First: O=c1cc(NCC2CCCO2)oc2c1ccc1ccccc12 (stereo not drawn)
Second: Clc1ccc(-c2cc3nc(N4CCOCC4)c4ccccc4c3nn2)cc1
The melting point of the first is lower: 139 to 140 °C for the first, 244 to 246 °C for the second.

First: CCCCc1nc(Cl)c(CC(=O)O)c(Cc2ccc(-c3ccccc3-c3nnn[nH]3)cc2)n1
Second: O=C1CC(Cl)=C(Cl)c2nc3cc(Cl)ccc3c(NCc3ccccc3)c21
The melting point of the first is higher: 180 °C for the first, 141 to 143 °C for the second.

First: O=C1CCC(c2ccc(Cl)c(C(F)(F)F)c2)=NN1
Second: N#Cc1ccc2c(c1)C(CCC1CC1)(C(F)(F)F)c1nc[nH]c(=O)c1N2 (stereo not drawn)
The melting point of the first is lower: 195 to 198 °C for the first, greater than 280 °C for the second.

First: CCNC=C(C(=O)C=Cc1ccccc1)C(=O)OC
Second: CC(=O)OC1C(C)OC(Sc2ccccc2)C(OCc2ccccc2)C1OC(C)=O (stereo not drawn)
The melting point of the first is lower: 92 to 94 °C for the first, 124 °C for the second.

First: Cn1c(-c2ccc(-n3ccnc3)cc2)cnc1[C@H](Cc1ccccn1)N(C=O)c1cc2ccc(Cl)cc2o1
Second: O=C(Cn1c(-c2ccc(Cl)cc2)nc2cccnc21)N1CCSC1
The melting point of the first is lower: 165 to 169 °C for the first, 215 to 218 °C for the second.

First: O=C(Nc1ccc(O[C@H]2CC[C@H](C(=O)O)CC2)cc1)c1nnc(Nc2cc(F)c(F)cc2F)o1
Second: COc1ccc(C(=O)CCCN2CCC(OC(=O)c3cc(Cl)c(N)c4c3OCC4)CC2)cc1OC
The melting point of the first is higher: 251 to 253 °C for the first, 156 °C for the second.

Compared with `N#CC1CN1Cc1ccccc1` (stereo not drawn), `CCCN1C(=O)N2C(=NCC2c2ccccc2)c2c1ncn2C` (stereo not drawn) is higher in melting point: 81 to 83 °C for the first, 152 to 154 °C for the second.

First: COCc1c(C(=O)OC(C)C)ncc2c1c1c(OCc3ccccc3)cccc1n2CC(=O)N(C)Cc1ccccc1
Second: Cc1nc2c(N)nc3ccccc3c2n1CCCCOCC#Cc1ccccc1
The melting point of the first is higher: 155 to 157 °C for the first, 109 to 110 °C for the second.

First: Cc1c(-c2cn(C)c(=O)c(Nc3ccc(C4C(=O)N(C)CCN4C(=O)OC(C)(C)C)cc3)n2)cccc1N1Cc2cc(C(C)(C)C)sc2C1=O (stereo not drawn)
Second: CC(C)(C)OC(=O)N1CC(Oc2ccc(N)nc2)C1
The melting point of the first is higher: 120 to 123 °C for the first, 83 to 84 °C for the second.

First: NS(=O)(=O)c1cc2cc(O)ccc2s1
Second: CN1CC(CCCl)Cc2ncccc2C1=S (stereo not drawn)
The melting point of the first is higher: 192 to 194 °C for the first, 110 to 120 °C for the second.

Compared with `Cn1cc(C(=O)NCC(=O)NCC2(O)CCC2)c(C(F)(F)F)n1`, `CCCCCCCC=CCCCCCCCCC(=O)OCC(O)COC(=O)CCCCCCCC=CCCCCCCCC` (stereo not drawn) is lower in melting point: 210 °C for the first, 20 to 22 °C for the second.
